One may read the inhibition as the relative decrease from the control value, in per cent.

For experiment [1], the system named is ABCA1 protein. As to the kind of experiment: Detection of upregulation of ABCA1 protein in cells (ApoA-I binding, High Content Image Analysis). In kind it is cell-based. Particulars: THP-1 macrophage cells, 24 hrs with compound. As to the method:
Detection of upregulation of ABCA1 protein in cells
The ability of compounds of the invention to increase the level of ABCA1 protein is determined in replicate cultures of THP-1 macrophage cells in 96-well microplates. Cells are plated at an initial density of 100,000 cells/well in 100 μl medium and differentiated to adherent macrophages with the addition of PMA (100 nM) for 68 hrs in 10% fetal bovine serum, 3 μl/L of b-mercaptoethanol, RPMI-1640 medium. Then, cells are incubated with RPMI-1640 medium containing 1% FCS, 25 μg/ml acetylated LDL, for 24 hours at 37° C. Following incubation with acetylated LDL, cells are washed twice with 50 μl PBS and incubated with 100 μl of RPMI-1640 medium containing the compound of interest solubilized in DMSO for an additional 24 hrs. The final DMSO concentration in presence of cells is maintained at 0.5%. ApoA-I binding assay using High Content Image Analysis is initiated by replacing with fresh medium, RPMI without Phenol Red, 0.2% BSA containing AlexaFluor®647 labeled ApoA-I for 2 h/37° C./5% CO2. Then, cells are fixed with 4% Formaldehyde in PBS (15 min, RT). Following Nuclei are stained with Hoechst solution (3 μM PBS) and Cytoplasm with Cell Mask Blue (2 μg/ml PBS), 15 min, RT. Finally the stained cells are fixed with a second round of formaldehyde treatment. Fixed stained cells are washed and kept in PBS at 4° C. and can be read immediately until one month after preparation.
The Alexa Fluor 647-labeled Apolipoprotein A-I (20 nM) was prepared as follows: Human recombinant Apolipoprotein A-I (ApoA-I) was exchanged to a buffer of 0.02 M NaHCO3 at pH 8.2 on an NAP desalting column (GE Healthcare) and brought to a concentration to 40 μM (1.13 mg/ml) by adjustment with the same buffer. The ApoA-I was fluorescently labeled by incubation with Alexa Fluor carboxylic acid succimidyl ester (Alexa Fluor 647, Invitrogen A-20006) at a 2:1 molar ratio (Alexa to ApoA-I) for 1 h under shaking at RT. The remaining unconjugated label was removed by buffer exchange to 0.02M NaHCO3 at pH 8.2.
Imaging and data collection were performed on an OPERA confocal microplate imaging reader using a 20× water immersion objective and UV360 or 405 laser to identify the cell nuclei and a 635 laser to identify the fluorescent ApoA-I. Eight fields of view are captured per well. Image capture and analysis was performed with the Acapella software. Background fluorescence detected in control wells without ApoA-I was subtracted.
Using XLfit3 program (ID Business Solutions Ltd. UK), the model 205 for Dose Response One Site is used to calculate the EC50 values. […] Particularly, the compounds of the present invention have EC50 values in a range of 0.1 μM to 3 μM.

Experiment [2] has as its target T1, human CB1 receptor (Homo sapiens, UniProt P21554).
T1 construct: expressed in transfected cells; host or cells: human embryonic kidney (HEK) cells, Semliki Forest Virus system, membrane preparation
As to the kind of experiment: CB1 receptor affinity, displacement of [3H]-CP-55,940. In kind it is binding. Particulars: HEK cell membranes, radioligand [3H]-CP-55,940. As to the method: (§1) CB1 and CB2 Receptor Affinity
(§2) The affinity of the compounds of the invention for cannabinoid receptors was determined using membrane preparations of human embryonic kidney (HEK) cells in which the human CB1 receptor is transiently transfected using a Semliki Forest Virus system in conjunction with [3H]-CP-55,940 as radioligand. After incubation of freshly prepared cell membrane preparation with the [^3H]-ligand, with or without addition of compounds of the invention, separation of bound and free ligand was performed by filtration over glass fiber filters. Radioactivity on the filter was measured by scintillation counting.
(§3) The ability of the compounds to displace the radioligand [^3H]-CP-55,940 was measured at a concentration of 10 μM and values provided as [% inhibition @10 μM] both for the CB1 and CB2 receptor assay, The lower % inhibition is, the lower the likelihood of side effects based on CB1 or CB2 receptor inhibition is.
On the technique in general: In a radioligand displacement assay an active substance lowers the binding of a labelled ligand.

Experiment [3] addresses T2, human CB2 receptor (Homo sapiens, UniProt P34972).
T2 construct: expressed in transfected cells; host or cells: human embryonic kidney (HEK) cells, Semliki Forest Virus system, membrane preparation
Briefly: CB2 receptor affinity, displacement of [3H]-CP-55,940. In kind it is binding. Particulars: HEK cell membranes, radioligand [3H]-CP-55,940. The procedure: as §1
as §2, with “cannabinoid CB2” for “cannabinoid”, “CB2” for “CB1”, “[^3H]-CP-55,940” for “[3H]-CP-55,940”
as §3

T1 sequence (P21554 whole entry): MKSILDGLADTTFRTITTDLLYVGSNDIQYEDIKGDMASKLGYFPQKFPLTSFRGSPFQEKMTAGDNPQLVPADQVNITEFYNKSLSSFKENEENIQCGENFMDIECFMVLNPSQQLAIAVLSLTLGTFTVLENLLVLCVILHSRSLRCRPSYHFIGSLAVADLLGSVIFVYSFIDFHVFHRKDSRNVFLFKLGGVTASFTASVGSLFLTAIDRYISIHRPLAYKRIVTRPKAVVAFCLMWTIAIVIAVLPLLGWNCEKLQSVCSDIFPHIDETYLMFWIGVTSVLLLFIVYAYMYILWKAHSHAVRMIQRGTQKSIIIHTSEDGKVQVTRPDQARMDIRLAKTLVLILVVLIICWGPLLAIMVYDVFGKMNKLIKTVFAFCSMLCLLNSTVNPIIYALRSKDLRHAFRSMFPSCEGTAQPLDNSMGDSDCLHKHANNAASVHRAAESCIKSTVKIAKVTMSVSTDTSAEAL
T2 sequence (P34972 whole entry): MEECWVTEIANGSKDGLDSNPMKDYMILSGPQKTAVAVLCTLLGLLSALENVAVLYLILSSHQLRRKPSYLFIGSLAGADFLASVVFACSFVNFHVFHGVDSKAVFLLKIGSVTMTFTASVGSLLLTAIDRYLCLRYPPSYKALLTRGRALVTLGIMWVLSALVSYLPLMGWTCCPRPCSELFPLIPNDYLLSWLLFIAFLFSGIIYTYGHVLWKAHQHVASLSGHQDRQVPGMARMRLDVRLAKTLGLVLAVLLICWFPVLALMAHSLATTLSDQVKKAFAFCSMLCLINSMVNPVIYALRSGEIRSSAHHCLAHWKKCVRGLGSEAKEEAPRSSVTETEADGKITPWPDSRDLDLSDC

Take `COc1cncc(C(=O)Nc2cnc(OCC(F)(F)F)c(C3CCCC3)c2)c1` [Example 1, N-[5-cyclopentyl-6-(2,2,2-trifluoro-ethoxy)-pyridin-3-yl]-5-methoxy-nicotinamide]: the “% increase of ABCA1 at 3 μM” value in experiment [1] is above 45% @ 3 μM. Also, the figures for the inhibition at 10 µM in experiment [2] and in experiment [3] were 4% and -9%, respectively.
Consider `Cc1cc(C(=O)Nc2cnc(OCC(F)(F)F)c(C3CCCC3)c2)[nH]n1` [Example 2, 5-methyl-2H-pyrazole-3-carboxylic acid [5-cyclopentyl-6-(2,2,2-trifluoro-ethoxy)-pyridin-3-yl]-amide], for which, in experiment [1], the “% increase of ABCA1 at 3 μM” value was above 45% @ 3 μM. Also, the inhibition at 10 µM is 22% in experiment [2] and -12% in experiment [3].
For the compound `Cc1ocnc1C(=O)Nc1cnc(OCC(F)(F)F)c(C2CCCC2)c1` [Example 3, 5-methyl-oxazole-4-carboxylic acid [5-cyclopentyl-6-(2,2,2-trifluoro-ethoxy)-pyridin-3-yl]-amide], the “% increase of ABCA1 at 3 μM” value in experiment [1] is on record as above 45% @ 3 μM. For the same compound, the inhibition at 10 µM in experiment [2] was determined as 26%; in experiment [3] it was 0%.
With `O=C(Nc1cnc(OCC(F)(F)F)c(C2CCCC2)c1)c1cccnc1` [Example 4, N-[5-cyclopentyl-6-(2,2,2-trifluoro-ethoxy)-pyridin-3-yl]-nicotinamide], the “% increase of ABCA1 at 3 μM” value in experiment [1] is listed as above 45% @ 3 μM. Further, the inhibition at 10 µM in experiment [2] was 34%; in experiment [3], 2%.
Regarding `O=C(Nc1cnc(OCC(F)(F)F)c(C2CCCC2)c1)c1ccccn1` [Example 5, pyridine-2-carboxylic acid [5-cyclopentyl-6-(2,2,2-trifluoro-ethoxy)-pyridin-3-yl]-amide], the “% increase of ABCA1 at 3 μM” value in experiment [1] was above 45% @ 3 μM. The inhibition at 10 µM in experiment [2] is 28%; in experiment [3], -8%.
On to `O=C(Nc1cnc(OCC(F)(F)F)c(C2CCCC2)c1)c1ccccc1` [Example 6, N-[5-cyclopentyl-6-(2,2,2-trifluoro-ethoxy)-pyridin-3-yl]-benzamide], for which the “% increase of ABCA1 at 3 μM” value in experiment [1] is given as above 45% @ 3 μM. Besides, the inhibition at 10 µM in experiment [2] is 40%; in experiment [3], -5%.
As for `O=C(Nc1cnc(OCC(F)(F)F)c(C2CCCC2)c1)c1cncnc1` [Example 7, pyrimidine-5-carboxylic acid [5-cyclopentyl-6-(2,2,2-trifluoro-ethoxy)-pyridin-3-yl]-amide], the “% increase of ABCA1 at 3 μM” value in experiment [1] is above 45% @ 3 μM. Moreover, the inhibition at 10 µM was 21% in experiment [2] and -12% in experiment [3].
With `O=C(Nc1cnc(OCC(F)(F)F)c(C2CCCCC2)c1)c1cccnc1` [Example 8, N-[5-cyclohexyl-6-(2,2,2-trifluoro-ethoxy)-pyridin-3-yl]-nicotinamide], the “% increase of ABCA1 at 3 μM” value in experiment [1] is above 45% @ 3 μM. Also, the inhibition at 10 µM in experiment [2] was 28%; in experiment [3], -13%.
Regarding `Cc1cc(C(=O)Nc2cnc(OCC(F)(F)F)c(C3CCCCC3)c2)[nH]n1` [Example 9, 5-methyl-2H-pyrazole-3-carboxylic acid [5-cyclohexyl-6-(2,2,2-trifluoro-ethoxy)-pyridin-3-yl]-amide], the “% increase of ABCA1 at 3 μM” value in experiment [1] is given as above 45% @ 3 μM. The inhibition at 10 µM in experiment [2] is 27%; in experiment [3], -9%.
Consider `Cc1ocnc1C(=O)Nc1cnc(OCC(F)(F)F)c(C2CCCCC2)c1` [Example 10, 5-methyl-oxazole-4-carboxylic acid [5-cyclohexyl-6-(2,2,2-trifluoro-ethoxy)-pyridin-3-yl]-amide], for which the “% increase of ABCA1 at 3 μM” value in experiment [1] is above 45% @ 3 μM. In addition, the inhibition at 10 µM is 13% in experiment [2] and -8% in experiment [3].
In the case of `O=C(Nc1cnc(OCC(F)(F)F)c(C2CCCCC2)c1)c1ccccn1` [Example 11, pyridine-2-carboxylic acid [5-cyclohexyl-6-(2,2,2-trifluoro-ethoxy)-pyridin-3-yl]-amide], the “% increase of ABCA1 at 3 μM” value in experiment [1] is on record as above 45% @ 3 μM. For the same compound, the results for the inhibition at 10 µM in experiment [2] and in experiment [3] were 33% and 3%, respectively.
For `COc1cncc(C(=O)Nc2cnc(OCC(F)(F)F)c(C3CCCCC3)c2)c1` [Example 12, N-[5-cyclohexyl-6-(2,2,2-trifluoro-ethoxy)-pyridin-3-yl]-5-methoxy-nicotinamide], the “% increase of ABCA1 at 3 μM” value in experiment [1] is above 45% @ 3 μM. Besides, the inhibition at 10 µM in experiment [2] is 19%; in experiment [3] it was -13%.
The corresponding values for `O=C(Nc1cnc(OCC(F)(F)F)c(C2CCCCC2)c1)c1ccccc1` [Example 13, N-[5-cyclohexyl-6-(2,2,2-trifluoro-ethoxy)-pyridin-3-yl]-benzamide] are above 45% @ 3 μM, 38% and -13%.
